Laboratory results published in patent US20220257577A1, “EZH2 INHIBITION IN COMBINATION THERAPIES FOR THE TREATMENT OF CANCERS” (Constellation Pharmaceuticals, Inc., priority 2019, published 2022).
Read-outs that look alike come from different tables or passages of the source.

What was measured:
[1] = tested on: A2780 (ovarian cancer) cell lines, A2780-P and A2780-CR; experiment: Antiproliferative activity in A2780 ovarian cancer cell lines; format: cell-based; settings: cisplatin resistant A2780-CR versus parental A2780-P; FIG. 1A/1B
Method: (§1) Data shown are mean cell viability±standard error of the mean (SEM), n=2-3 and are representative of duplicate independent experiments.
(§2) Representative of duplicate independent experiments; mean±SD shown.
(§3) The sensitivity of multiple solid tumor cancer cell lines to the antiproliferative activity of Compound 1 with and without cisplatin was evaluated. […] Combination treatment with Compound 1 and cisplatin, however, led to greater than 50% reduction in growth.

[2] = tested on: HT1376 (bladder cancer) cell lines, HT1376-DMF and HT1376-CR; experiment: Antiproliferative activity in HT1376 bladder cancer cell lines; format: cell-based; settings: cisplatin resistant HT1376-CR versus age-matched DMF control HT1376-DMF; FIG. 1A/1B
Method: as §1, §2, §3

[3] = tested on: gene expression in bladder cancer cell lines; experiment: RNA-sequencing of bladder cancer cell lines; format: cell-based; settings: treatment for 4 days
Source text: Reduction in H3K27me3 levels result in changes in gene expression. RNA-sequencing of bladder cancer cell lines after treatment with Compound 1 for 4 days results in significant changes in the expression levels of multiple genes. […] The increase in gene expression is both dose and time dependent, with increasing expression observed at higher concentrations of Compound 1 and at later timepoints. This contrasts with reductions of H3K27me3 as methyl mark changes were observed after 1 day of Compound 1 treatment. […] See Yang X, Karuturi R K, Sun F, et al. CDKN1C (p57) is a direct target of EZH2 and suppressed by multiple epigenetic mechanisms in breast cancer cells. PLoS One. 2009; 4(4):e5011. Low expression of CDKN1C is seen in advanced bladder and breast cancers and is correlated with poor prognosis. See Yang above and Hoffmann M J, Florl A R, Seifert H H, et al. Multiple mechanisms downregulate CDKN1C in human bladder cancer. Int J Cancer. 2005 Apr. 10; 114(3):406-13.

[4] = tested on: HT1376 tumors; experiment: Antitumor effect in HT1376 tumors; format: in vivo; settings: HT1376 tumors in CB17 SCID mice; FIG. 4
Source text: FIG. 4 illustrates the antitumor effect of Compound 1, cisplatin, and the combination of both in HT1376 tumors in CB17 SCID mice. Data shown are mean tumor size±SEM, n=6. PO=oral administration, IV=intravenous administration, QD=once per day, QW=once per week.

[5] = tested on: H3K27me3 in HT1197 bladder cancer cell line; experiment: Global H3K27me3 intracellular levels, HT1197; format: cell-based; settings: Homo sapiens, 72 h; HT1197, Day 3; read-out: EC50, reduction of global H3K27me3 levels
[6] = target: wild-type EZH2-containing PRC2 complex (Homo sapiens, UniProt Q15910); settings: see PCT/US2019/027932, read-out: half-maximal inhibitory concentration (IC50), catalytic activity; cited from earlier work
[7] = target: T1, EZH2 (PRC2) (Homo sapiens, UniProt Q15910); experiment: Kinetic assays characterising binding to PRC2; settings: from kinetic assays
Method: In biochemical assays, Compound 1 suppresses catalytic activity of wild-type and Y641N mutant EZH2-containing PRC2 complex, as well as EZH1-containing PRC2 complex, with half-maximal inhibitory concentrations (IC50) values of 0.02 and 0.03 nM for wild-type and Y641N mutant EZH2, respectively, and 0.06 nM for EZH1. See e.g., PCT/US2019/027932. […] Based-upon the kinetic analysis it was determined that Compound 1 binds to PRC2 with a long residence time (approximately 101 days). See e.g., PCT/US2019/027932.

[8] = target: Y641N mutant EZH2-containing PRC2 complex (Homo sapiens, UniProt Q15910, Y641N); settings: see PCT/US2019/027932, read-out: half-maximal inhibitory concentration (IC50), catalytic activity; cited from earlier work
[9] = target: EZH1-containing PRC2 complex (Homo sapiens, UniProt Q92800); settings: see PCT/US2019/027932, read-out: half-maximal inhibitory concentration (IC50), catalytic activity; cited from earlier work
[10] = tested on: H3K27me3 in HeLa (wild-type EZH2-containing cervical cancer cell line); settings: after 4 days of treatment, see PCT/US2019/027932, read-out: EC50, reduction of global H3K27me3 levels; cited from earlier work
[11] = tested on: H3K27me3 in 639V bladder cancer cell line; experiment: Global H3K27me3 intracellular levels, 639V; format: cell-based; settings: Homo sapiens, 72 h, Day 3, read-out: EC50, reduction of global H3K27me3 levels
[12] = tested on: H3K27me3 in ovarian cancer TOV21G cell line; experiment: Global H3K27me3 intracellular levels, TOV21G; format: cell-based; settings: Homo sapiens, 72 h, Day 3, read-out: EC50, reduction of global H3K27me3 levels
[13] = target: T1, EZH2 (PRC2); settings: binding to PRC2 complex, see PCT/US2019/027932, cited from earlier work

T1 sequence (Q15910 whole entry): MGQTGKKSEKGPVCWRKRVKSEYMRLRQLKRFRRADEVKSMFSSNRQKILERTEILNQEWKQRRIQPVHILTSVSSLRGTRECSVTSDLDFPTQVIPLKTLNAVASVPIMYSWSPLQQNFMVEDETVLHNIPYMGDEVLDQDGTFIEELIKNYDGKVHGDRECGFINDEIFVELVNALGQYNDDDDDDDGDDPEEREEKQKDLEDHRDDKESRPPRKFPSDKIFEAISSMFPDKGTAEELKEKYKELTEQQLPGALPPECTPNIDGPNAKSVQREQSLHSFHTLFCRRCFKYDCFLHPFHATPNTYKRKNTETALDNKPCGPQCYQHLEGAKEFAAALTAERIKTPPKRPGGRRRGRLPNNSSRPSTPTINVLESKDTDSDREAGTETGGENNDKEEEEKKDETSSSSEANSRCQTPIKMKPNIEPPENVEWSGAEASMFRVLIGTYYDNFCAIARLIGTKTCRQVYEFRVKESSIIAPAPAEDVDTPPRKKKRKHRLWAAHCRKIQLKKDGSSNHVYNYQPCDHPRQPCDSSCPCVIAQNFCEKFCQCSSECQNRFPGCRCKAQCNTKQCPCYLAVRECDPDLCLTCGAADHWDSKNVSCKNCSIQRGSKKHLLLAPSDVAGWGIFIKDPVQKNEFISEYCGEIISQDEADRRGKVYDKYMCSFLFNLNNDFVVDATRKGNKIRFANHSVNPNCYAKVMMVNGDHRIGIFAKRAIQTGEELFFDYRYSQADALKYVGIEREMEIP
T1 sequence (O75530 whole entry partner): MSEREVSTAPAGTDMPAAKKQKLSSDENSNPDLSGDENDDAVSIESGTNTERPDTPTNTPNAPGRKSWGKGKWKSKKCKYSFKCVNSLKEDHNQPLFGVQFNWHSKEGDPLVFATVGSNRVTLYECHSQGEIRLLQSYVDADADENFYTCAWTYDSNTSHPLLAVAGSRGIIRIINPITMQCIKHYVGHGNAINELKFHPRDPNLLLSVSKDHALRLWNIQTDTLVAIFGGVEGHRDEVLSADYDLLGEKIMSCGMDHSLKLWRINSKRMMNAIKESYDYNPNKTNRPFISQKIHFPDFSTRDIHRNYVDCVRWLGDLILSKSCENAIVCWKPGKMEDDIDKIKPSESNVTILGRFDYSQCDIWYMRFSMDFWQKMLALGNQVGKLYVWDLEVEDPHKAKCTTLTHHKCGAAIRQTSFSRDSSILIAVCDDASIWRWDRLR
T1 sequence (Q15022 whole entry partner): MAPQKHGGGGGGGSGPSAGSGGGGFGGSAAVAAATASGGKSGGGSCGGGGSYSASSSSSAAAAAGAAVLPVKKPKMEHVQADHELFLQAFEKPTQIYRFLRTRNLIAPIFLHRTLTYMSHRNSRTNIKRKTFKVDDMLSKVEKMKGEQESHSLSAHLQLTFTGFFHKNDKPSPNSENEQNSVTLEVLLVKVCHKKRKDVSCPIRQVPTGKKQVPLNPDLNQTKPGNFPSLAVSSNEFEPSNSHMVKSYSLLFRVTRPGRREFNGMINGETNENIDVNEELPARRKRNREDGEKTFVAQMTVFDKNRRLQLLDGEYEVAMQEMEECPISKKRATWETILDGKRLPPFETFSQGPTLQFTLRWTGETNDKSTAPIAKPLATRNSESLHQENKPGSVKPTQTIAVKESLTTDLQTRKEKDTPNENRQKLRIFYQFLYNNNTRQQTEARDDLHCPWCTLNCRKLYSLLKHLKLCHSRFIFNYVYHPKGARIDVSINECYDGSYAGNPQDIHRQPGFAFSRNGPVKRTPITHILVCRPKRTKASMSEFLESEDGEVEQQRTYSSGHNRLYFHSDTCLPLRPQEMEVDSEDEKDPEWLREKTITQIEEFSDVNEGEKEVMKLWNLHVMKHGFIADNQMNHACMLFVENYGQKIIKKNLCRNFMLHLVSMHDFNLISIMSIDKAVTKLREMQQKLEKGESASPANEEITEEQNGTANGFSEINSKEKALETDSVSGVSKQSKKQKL
T1 sequence (Q09028 whole entry partner): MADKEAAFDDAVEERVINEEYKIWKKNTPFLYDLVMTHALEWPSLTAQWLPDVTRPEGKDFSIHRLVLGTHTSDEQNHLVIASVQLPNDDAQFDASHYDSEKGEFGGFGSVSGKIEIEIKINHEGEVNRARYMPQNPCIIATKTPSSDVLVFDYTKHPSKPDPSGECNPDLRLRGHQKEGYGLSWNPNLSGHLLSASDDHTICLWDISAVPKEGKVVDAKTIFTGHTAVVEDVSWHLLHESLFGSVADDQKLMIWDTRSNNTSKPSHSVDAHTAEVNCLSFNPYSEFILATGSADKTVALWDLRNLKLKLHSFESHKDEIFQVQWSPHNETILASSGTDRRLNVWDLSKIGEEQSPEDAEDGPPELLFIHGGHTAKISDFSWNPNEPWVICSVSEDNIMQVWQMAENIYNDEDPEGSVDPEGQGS
Y641N mutant EZH2-containing PRC2 complex, sequence (Q15910 whole entry Y641N): as the sequence (Q15910 whole entry) above, with Y641N counted along it
Y641N mutant EZH2-containing PRC2 complex, sequence (O75530 whole entry partner): as the sequence (O75530 whole entry partner) above
Y641N mutant EZH2-containing PRC2 complex, sequence (Q15022 whole entry partner): as the sequence (Q15022 whole entry partner) above
Y641N mutant EZH2-containing PRC2 complex, sequence (Q09028 whole entry partner): as the sequence (Q09028 whole entry partner) above
wild-type EZH2-containing PRC2 complex, sequence (Q15910 whole entry): as the sequence (Q15910 whole entry) above
wild-type EZH2-containing PRC2 complex, sequence (O75530 whole entry partner): as the sequence (O75530 whole entry partner) above
wild-type EZH2-containing PRC2 complex, sequence (Q15022 whole entry partner): as the sequence (Q15022 whole entry partner) above
wild-type EZH2-containing PRC2 complex, sequence (Q09028 whole entry partner): as the sequence (Q09028 whole entry partner) above
EZH1-containing PRC2 complex, sequence (Q92800 whole entry): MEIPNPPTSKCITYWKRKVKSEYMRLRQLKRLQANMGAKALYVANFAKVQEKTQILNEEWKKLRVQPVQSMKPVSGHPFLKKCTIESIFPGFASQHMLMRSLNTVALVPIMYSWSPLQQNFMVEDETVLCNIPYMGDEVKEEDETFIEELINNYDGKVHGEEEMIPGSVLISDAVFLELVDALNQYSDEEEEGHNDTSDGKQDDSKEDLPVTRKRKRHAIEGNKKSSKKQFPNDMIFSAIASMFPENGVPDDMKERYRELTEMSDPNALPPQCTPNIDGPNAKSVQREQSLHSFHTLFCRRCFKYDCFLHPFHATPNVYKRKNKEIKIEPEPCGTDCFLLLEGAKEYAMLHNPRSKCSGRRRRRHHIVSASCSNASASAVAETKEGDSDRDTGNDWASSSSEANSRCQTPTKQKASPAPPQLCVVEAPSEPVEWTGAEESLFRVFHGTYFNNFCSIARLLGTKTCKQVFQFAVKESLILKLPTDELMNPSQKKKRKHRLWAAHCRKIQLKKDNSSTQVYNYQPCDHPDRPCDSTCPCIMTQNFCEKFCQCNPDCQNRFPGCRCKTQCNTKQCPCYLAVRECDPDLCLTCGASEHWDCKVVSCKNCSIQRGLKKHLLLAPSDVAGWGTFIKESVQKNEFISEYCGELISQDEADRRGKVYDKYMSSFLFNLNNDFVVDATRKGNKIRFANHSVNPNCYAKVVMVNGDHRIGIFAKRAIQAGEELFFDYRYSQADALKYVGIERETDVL
EZH1-containing PRC2 complex, sequence (O75530 whole entry partner): as the sequence (O75530 whole entry partner) above
EZH1-containing PRC2 complex, sequence (Q15022 whole entry partner): as the sequence (Q15022 whole entry partner) above
EZH1-containing PRC2 complex, sequence (Q09028 whole entry partner): as the sequence (Q09028 whole entry partner) above

EC50 [5]	selectivity for EZH2 over EZH1 [7]	EC50 [11]	EC50 [12]	Structure (SMILES)	sensitivity (cell viability) to single treatment [1]	sensitivity (cell viability) to single treatment [2]	CDKN1C (p57, Kip2) gene expression [3]	tumor growth [4]	IC50 [6]	IC50 [8]	IC50 [9]	EC50 [10]	residence time [13]	residence time ([13]; listed as 7-chloro-2-(4-(3-methoxyazetidin-1-yl)cyclohexyl)-2,4-dimethyl-N-(6-methyl-4-(m)))
–	–	–	–	N.N.[Cl][Pt][Cl] [cisplatin, reference compound]	less sensitive	less sensitive	–	–	–	–	–	–	–	–
0.14 nM	approximately 70 fold	0.09 nM	0.26 nM	COC1CN(C2CCC(C3(C)Oc4c(Cl)cc(C(=O)NCc5c(SC)cc(C)[nH]c5=O)c(C)c4O3)CC2)C1 (single isomer, unassigned) [Compound 1, 7-chloro-2-(4-(3-methoxyazetidin-1-yl)cyclohexyl)-2,4-dimethyl-N-((6-methyl-4-(methylthio)-2-oxo-1,2-dihydropyridin-3-yl)methyl)benzo[d][1,3]dioxole-5-carboxamide]	strongly sensitive	strongly sensitive	highly upregulated	effective in reducing tumor growth	0.02 nM	0.03 nM	0.06 nM	0.4 nM	approximately 101 days	~101 days
